This note sets out measurements from US7638269B2, “Viral capsid assembly intermediates and methods of production” (priority 1997, dated 2009).

“Also recorded” adds a separate entry of the source.

The test system of series [1] is immature HIV capsids (Gag Pr55). The series can be described thus: Cell-free translation and assembly of HIV capsids in wheat germ extract programmed with Gag transcript. Type of series: biochemical. The conditions noted are these: for Material in fractions corresponding to Final Capsid / Material in fractions corresponding to complex A / Material in fractions corresponding to complexes B/C: velocity sedimentation, apyrase added post-translationally, detergent cotranslationally. The method, then:
Translation of the transcription products was carried out in wheat germ extract containing ^35S methionine (ICN Pharmaceuticals, Costa Mesa, Calif.). The wheat germ extract was prepared as described by Erickson and Blobel (1983) as modified below. Reactions were performed as previously described (Lingappa, J. R., et al., J. Cell. Biol. (1984) 125:99-111), except for modifications noted below.
A 25 microliter wheat germ transcription/translation reaction mixture contained: 5 microliters Gag transcript (prepared as described in transcription methods), 5 microliters wheat germ extract (prepared as described in wheat germ preparation; preferably using the high speed supernatant detailed in Example 4), 5 microliters 35-S Energy Mix 5× stock (Sigma Chemical Co., St. Louis, Mo.), 2.5 microliters Compensating Buffer (Sigma Chemical Co.), 1.0 microliter 40 mM MgAcetate (Sigma Chemical Co.), 2.0 microliters […] Myristoyl CoA (made up in 20 mM Tris Acetate, pH 7.6; Sigma Chemical Co.), 3.75 microliters 20 mM Tris Acetate buffer, […] (U.S. Biochemicals; Cleveland, Ohio), 0.25 microliter Creatine Kinase (4 mg/ml stock in 50% glycerol, 10 mM Tris Acetate; Boehringer Mannheim, Indianapolis, Ind.), 0.25 microliter bovine tRNA (10 mg/ml stock; Sigma Chemical Co.), and 0.25 microliter RNAse Inhibitor (20 units/50; Promega).
Myristoyl coenzyme A (MCoA; Sigma, St. Louis, Mo.) was added at a concentration of 10 micromolar at the start of translation when indicated. Translation reactions ranged in volume from 20 to 100 microliters and were incubated at 25° C. for 150 min. Some reactions were adjusted to a final concentration of the following agents at tunes indicated in the figures and specification: 0.2 μM emetine (Sigma); 1.0 units apyrase (Sigma) per mL translation; 0.002%, 0.1%, or 1.0% “NIKKOL”. Cell-free translation and assembly reactions were also carried out successfully in rabbit reticulocyte lysate prepared as described previously (Merrick, W. C., Methods Enzymol. 101:606-615 (1983)) or obtained from commercial suppliers (Promega, Madison, Wis.). In pulse-chase experiments, translation reactions contained ^35S cysteine (Amersham Life Sciences, Cleveland, Ohio) for radiolabeling. After 4 min translation reaction time, 3 mM unlabeled cysteine was added, and the reaction was continued at 25° C. for variable chase times as indicated in the experiments described herein.
Where indicated, wheat germ extract prepared as described in Example 1 was centrifuged at either 50,000 rpm for 21 min or 100,000 rpm for 30 min in a TLA 100 rotor (Beckman Instruments, Palo Alto, Calif.). The supernatant (high-speed supernatant, HSS) of the 50,000 rpm spin was used for cell-free translation and assembly reactions. The pellet of the 100,000 rpm spin (high speed pellet, HSP) was resuspended at a 5× concentration in buffer (25 mM Hepes pH 7.4, 4 mM MgAc, 100 mM KAc, 0.25M sucrose). Wheat germ extract adjusted to contain a concentration 0.5% “NIKKOL” was subjected to the same ultracentrifugation in parallel to generate the detergent treated high-speed pellet (HSPd). This pellet was washed twice with […] of the above non-detergent buffer in order to remove traces of detergent, and then resuspended as described above. Following treatment with emetine at […], 1.8 μL of HSP or HSPd was added to the […] cell-free reactions programmed with HSS. Control reactions were treated with the same volume of buffer at the same time. At the end of the 150 min incubation, reactions were separated into soluble and particulate fractions and analyzed as described above.
The cell-free translation/assembly system of the invention contains the components described in Part A, above. Example 1 provides details of an exemplary system derived from wheatgerm extract, which is capable of supporting translation and assembly of HIV capsids. Briefly, protein synthesis was initiated in the cell-free translation/assembly system by adding an mRNA that encodes Gag Pr55 protein. […]

In series [2] the test system is HBV capsids (HBV core). Type of series: biochemical.
Chain of HBV capsids (HBV core) (P03146 whole entry, the tested form may be a part): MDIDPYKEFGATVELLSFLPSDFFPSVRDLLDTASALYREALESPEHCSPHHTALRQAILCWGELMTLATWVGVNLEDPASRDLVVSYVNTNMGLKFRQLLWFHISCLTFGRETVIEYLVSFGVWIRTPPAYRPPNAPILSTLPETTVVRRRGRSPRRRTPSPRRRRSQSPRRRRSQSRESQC
Protocol: The radiolabeled translation products were analyzed for formation of HBV core multimers by rae sedimentation on 10-50% sucrose gradients at 200,000 g for 1 h. Following fractionation of the gradients, the migration of radiolabeled core proteins was determined using SDS-PAGE, Coomassie staining, and autoradiography. Under these conditions, unlabeled protein standards of less than 12S, such as catalase, migrated in the first three fractions. […] The first region, at the top of the gradient (7) corresponds to the position of monomeric and small oligomeric core polypeptides, while the second region, in the middle of the gradient (M), corresponds to the position of authentic capsids. The third region, in the pellet (P), represents very high molecular weight structures. The possibility that either the pellet or the middle fraction consists of completed chains not yet released from ribosomes was ruled out by treatment of the translation products after completion of synthesis with EDTA, which is known to disassemble ribosomes (Sabatini et al., 1966).
To address this, pellet material was isolated by fractionating the products of a 30-min translation of HBV core on a sucrose gradient and resuspending the pellet in buffer. The resuspended pellet was divided into equal aliquots and treated either with aphyase or with buffer for 90 min at 24° C.
The test system of series [3] is HIV-1 particle formation. Type of series: cell-based. To be noted: Cos-1 cells. On the procedure: Cos-1 cells were transfected using Gag expression plasmids pCMVRev and PSVGagRRE-R described in Simon et al, J. Virology, (1997) 71:1013-18. HP68 plasmids for mammalian expression were constructed by using PCR to insert the coding regions for WGHP68, amino acids 1-378, Nhe1/Xba1 of pCDNA 3.1 (Invitrogen). Coding regions of all constructs were sequenced. Cells were transfected using Gibco Lipofectamine (Cos-1) or Lipofectamine Plus (293T). All transfections used a constant amount of DNA (18 μg per 60 mm dish). Medium was changed 24 hours after transfection and harvest was performed 28 or 60 hours after transfection for immunofluorescence and immunoblotting respectively. For immunofluorescence, cells were fixed in paraformaldehyde, permeabilized with 1% triton, and incubated with mouse HIV-1 Gag antibody (1:50) and affinity-purified HuHP68 antiserum (1:2000), followed by Cy3- and Cy 2-coupled secondary (Jackson) (1:200). 178 cells were quantitated. For immunoblotting in FIG. 13 rat IgG was added to medium as a tracer at 10 μg/ml at the time of harvest, and cells were harvested in SDS sample buffer with boiling. For quantitation of immunoblotts, bands were compared to an immunoblot standard curve generated with known quantities of sample. […]

[4] abbreviates: emetine added after 50 min, incubated to 150 min.

As for `Nc1ncnc2c1ncn2[C@@H]1O[C@H](COP(=O)(O)OP(=O)(O)NP(=O)(O)O)[C@@H](O)[C@H]1O` [AMP-PNP], in series [1] (added after apyrase treatment), the “reversal of the effect of ATP depletion on assembly” value is “not reversed”.
As for `CCCCCCCCCCCCOCCOCCOCCOCCOCCOCCOCCOCCO` [NIKKOL, octaethyleneglycol mono n-dodecyl ether], the capsid assembly entry in series [1] (0.002% added at start of translation, 10 μM MCoA) is reported as “This effect was not observed”. Besides, in series [1] (0.1% added at start of translation, 10 μM MCoA), the capsid assembly result was “largely abolished capsid assembly”. Moreover, in series [1] (added after completion of the 150 min assembly reaction, up to 1.0%), the amount of assembly entry was “did not diminish the amount of assembly”. Further, the Gag polypeptide synthesis entry in series [1] (concentration of 0.1%) is recorded as “had no effect on Gag polypeptide synthesis”. In addition, the assembly entry in series [1] (emetine and 0.1% NIKKOL, post-translational phase 50 min into the reaction) is “assembly was dramatically reduced”. Also, in series [1], the “Material in fractions corresponding to Final Capsid” value is 189, the “Material in fractions corresponding to complex A” value amounted to 2656 and the “Material in fractions corresponding to complexes B/C” value amounted to 6130.
On to apyrase, for which, in series [1] (apyrase added after capsid assembly was completed), the “amount of assembly (capsid stability)” value is “had no effect on the amount of assembly”. Also, in series [1] (apyrase added after emetine at 50 min), the “total amount of Pr55 synthesis” value is given as “did not change the total amount of Pr55 synthesis”. The capsid assembly entry in series [1] (apyrase added immediately after 0.2 μM emetine at 50 min, 150 min) was “dramatic reduction in capsid assembly”. Also, in series [1], the “Material in fractions corresponding to Final Capsid” value came out at 133, the “Material in fractions corresponding to complex A” value is given as 2851 and the “Material in fractions corresponding to complexes B/C” value stood at 5999. Also, the “release of capsids from the isolated pellet” value in series [2] (resuspended pellet of a 30-min translation, 90 min at 24° C.) is “results in release of completed capsids from the pellet”.
In the case of `CC[C@H]1CN2CCc3cc(OC)c(OC)cc3[C@@H]2C[C@@H]1C[C@H]1NCCc2cc(OC)c(OC)cc21` [emetine], in series [1] (setting [4]), the “proportion of capsid assembly” value is given as “comparable to that of the untreated control” and the “total Pr55 synthesis, of the control” value is given as 60%. Also, the “effect on treatment of the isolated pellet with energy substrates or apyrase” value in series [2] is given as “did not affect the results”.
For `CCCCCCCCCCCCCC(=O)SCCNC(=O)CCNC(=O)[C@H](O)C(C)(C)COP(=O)(O)OP(=O)(O)OC[C@H]1O[C@@H](n2cnc3c(N)ncnc32)[C@H](O)[C@@H]1OP(=O)(O)O` [MCoA, Myristoyl Coenzyme A], the “total amount of Pr55 synthesized” value in series [1] (10 μM MCoA) was “had no effect on the total amount of Pr55 synthesized”. Further, the assembly into capsids entry in series [1] (10 μM MCoA added at 90 min, post-translational phase) is reported as “very little assembly occurred”.
As to `O=C(O)CN(CCN(CC(=O)O)CC(=O)O)CC(=O)O` [EDTA], the “distribution of labeled core polypeptides in top, middle and pellet fractions” value in series [2] (treatment of translation products after completion of synthesis, 10 mM) was “largely unaffected; also recorded: had no effect”.

B1: WGHP68-Tr1: 379 amino acid truncated form of wheat germ HP68, stop codon before the second nucleotide-binding domain (protein)
chain: MADRLTRIAIVSEDKCKPKKCRQECKKSCPVVKTGKLCIEVSPVAKLAFISEELCIGCGICVKKCPFDAIEIINLPKDLEKDTTHRYGPNTFKLHRLPVPRPGQVLGLVGTNGIGKSTALKVLAGKLKPNLGRFKNPPDWQEILTYFRGSELQNYFTRILEDNLKAIIKPQYVDHIPKAVQGNVGQVLEQKDERDMKNELCVDLELNQVIDRNVGDLSGGELQRFAIAVVAVQSAEIYMFDEPSSYLDVKQRLKAARVIRSLLRSNSYVIVVEHDLSVLDYLSDFICCLYGKPGAYGVVTLPFSVREGINIFLAGFVPTENLRFRDESLTFKIAETQESAEEVATYQRYKYPTMSKTQGNFKLSVVEGEFTDSQIVVM
With B1, in series [3], the “Gag and actin levels in cell lysates” value is recorded as “remained unchanged”; the toxicity to cells result was “not toxic to cells”.
